In patent US20240325398A1, “COMBINATION THERAPIES” (Infinity Pharmaceuticals, Inc., priority 2014, published 2024):

Columns and labels:
HH = experiment: Combination study, ATPLite 72 h, dose matrix (Synergy Score, CI50); type: cell-based; conditions: combination with Compound 1
Method: The method is described as follows.
Additive effect is CI=1.0. […] Antagonistic effect is CI>1.0.
The Synergy Score is calculated as: […]

HBL-1 = experiment: as above; conditions: combination with Compound 1, 72 h
OCI-Ly3 = experiment: as above; conditions: combination with Compound 1; OCI-Ly3; 72 h
U-2932 = experiment: as above; conditions: combination with Compound 1, 72 h
TMD8 = experiment: as above; conditions: combination with Compound 1; for CI50 growth inhibition / CI50 inhibition / Synergy Score growth inhibition / Synergy Score inhibition: TMD8, 72 h
OCI-Ly7 = experiment: as above; conditions: combination with Compound 1, 72 h
SU-DHL-4-epst = experiment: as above; conditions: combination with Compound 1, 72 h
DOHH-2 = experiment: as above; conditions: combination with Compound 1, 72 h
Farage = experiment: as above; conditions: combination with Compound 1; for CI50 growth inhibition / CI50 inhibition / Synergy Score growth inhibition / Synergy Score inhibition: Farage, 72 h
SU-DHL-10-epst = experiment: as above; conditions: combination with Compound 1, 72 h
Method: (§1) Cells are thawed from a liquid nitrogen preserved state. Once cells have been expanded and divide at their expected doubling times, screening begins. Cells are seeded in growth media in either black 1536-well or 384-well tissue culture treated plates. Cells are then equilibrated in assay plates via centrifugation and placed in incubators attached to the Dosing Modules at 37° C. for 24 hours before treatment. […] These Tzero (To) plates are read using ultra-sensitive luminescence on Envision plate readers (Perkin Elmer). Treated assay plates are incubated with compound for 72 hours. After 72 hours, plates are developed for endpoint analysis using ATPLite. All data points are collected via automated processes, quality controlled and analyzed using Zalicus software.
The measure of effect in the experiment can be the inhibition of cellular response relative to the untreated level (vehicle alone). […] The inhibition ranges from 0% at the untreated level to 100% when T=0. Inhibition levels are negative for agents that actually increase levels.
(§2) Growth Inhibition (GI) is used as a measure of cell viability. […] A GI reading of 100% represents complete growth inhibition—T72 compound-treated and T0 vehicle signals are matched. […] A GI reading of 200% represents complete death of all cells in the culture well. Compounds reaching an activity plateau of GI 200% are considered cytotoxic. GI is calculated by applying the following test and equation:
(§3) Combination analysis data were collected in a 6×6 dose matrix. Synergy is calculated by comparing a combination's response to those of its single compound, against the drug-with-itself dose-additive reference model. Deviations from dose additivity may be assessed visually on an isobologram or numerically with a Combination Index (CI). […] Additive effect is CI=1.0. […] Antagonistic effect is CI>1.0.
(§4) To measure combination effects in excess of Loewe additivity, a scalar measure to characterize the strength of synergistic interaction termed the Synergy Score is devised. The Synergy Score is calculated as:
(§5) The fractional inhibition for each component agent and combination point in the matrix is calculated relative to the median of all vehicle-treated control wells. The Synergy Score equation integrates the experimentally-observed activity volume at each point in the matrix in excess of a model surface numerically derived from the activity of the component agents using the Loewe model for additivity. Additional terms in the Synergy Score equation (above) are used to normalize for various dilution factors used for individual agents and to allow for comparison of synergy scores across an entire experiment. The inclusion of positive inhibition gating or an Idata multiplier removes noise near the zero effect level, and biases results for synergistic interactions at that occur at high activity levels.
Loewe Volume (Loewe Vol) is used to assess the overall magnitude of the combination interaction in excess of the Loewe additivity model. Loewe Volume is particularly useful when distinguishing synergistic increases in a phenotypic activity (positive Loewe Volume) versus synergistic antagonisms (negative Loewe Volume). […] This model defines additivity as a non-synergistic combination interaction where the combination dose matrix surface should be indistinguishable from either drug crossed with itself. The calculation for Loewe additivity is:

RL = experiment: as above; conditions: combination with Compound 1, 72 h
KARPAS-422 = experiment: as above; conditions: combination with Compound 1, 72 h
WSU-NHL = experiment: as above; conditions: combination with Compound 1, 72 h
Method: as §1
(§6) where T is treated cell count and V is untreated (vehicle) cell count (at 72 hours). I ranges from 0% (when T=V) to 100% (when T=0). […] The measure of effect in the experiment can be the inhibition of cellular response relative to the untreated level (vehicle alone). […] The inhibition ranges from 0% at the untreated level to 100% when T=0. Inhibition levels are negative for agents that actually increase levels. Other effect measures, such as an activity ratio r=T/V may be more appropriate for some assays. When activity ratios (e.g, fold increase over stimulated control) are being used, the effect can be measured using an induction 1=ln(T/V). With this definition, all effect expressions are the same as for inhibition.
as §2, §3, §4, §5
(§7) Loewe Volume (Loewe Vol) is used to assess the overall magnitude of the combination interaction in excess of the Loewe additivity model. Loewe Volume is particularly useful when distinguishing synergistic increases in a phenotypic activity (positive Loewe Volume) versus synergistic antagonisms (negative Loewe Volume). […] This model defines additivity as a non-synergistic combination interaction where the combination dose matrix surface should be indistinguishable from either drug crossed with itself.

KARPAS-299 = experiment: as above; conditions: combination with Compound 1
GRANTA-519 = experiment: as above; conditions: combination with Compound 1
Jeko-1 = experiment: as above; conditions: combination with Compound 1
Mino = experiment: as above; conditions: combination with Compound 1
NCI-H929 = experiment: as above; conditions: combination with Compound 1
[1] = as above; conditions: combination with Compound 1; OPM-2
OMP-2 = experiment: as above; conditions: combination with Compound 1; OPM-2
RPMI-8226 = experiment: as above; conditions: combination with Compound 1
Method: as §1, §6, §2, §3, §4, §5, §7

CO[C@H]1C[C@@H]2CC[C@@H](C)[C@@](O)(O2)C(=O)C(=O)N2CCCC[C@H]2C(=O)O[C@H]([C@H](C)C[C@@H]2CC[C@@H](OCCO)[C@H](OC)C2)CC(=O)[C@H](C)/C=C(\C)[C@@H](O)[C@@H](OC)C(=O)[C@H](C)C[C@H](C)/C=C/C=C/C=C/1C [everolimus, dihydroxy-12-[(2R)-1-[(1S,3R,4R)-4-(2-hydroxyethoxy)-3-methoxycyclohexyl]propan-2-yl]-19,30-dimethoxy-15,17,21,23,29,35-hexamethyl-11,36-dioxa-4-azatricyclo[30.3.1.0]hexatriaconta-16,24,26,28-tetraene-2,3,10,14,20-pentone]
T (T=0.5 to <0.7): CI50 growth inhibition (HBL-1) | CI50 growth inhibition (TMD8) | CI50 growth inhibition (Farage) | CI50 growth inhibition (RL) | CI50 growth inhibition (WSU-NHL) | CI50 growth inhibition (Jeko-1) | CI50 growth inhibition (Mino) | CI50 inhibition (NCI-H929)
S (S=0.01 to <0.5): CI50 growth inhibition (HH) | CI50 inhibition (HH) | CI50 growth inhibition (U-2932) | CI50 inhibition (TMD8) | CI50 growth inhibition (OCI-Ly7) | CI50 growth inhibition (SU-DHL-4-epst) | CI50 inhibition (SU-DHL-4-epst) | CI50 growth inhibition (DOHH-2) | CI50 inhibition (DOHH-2) | CI50 inhibition (Farage) | CI50 growth inhibition (SU-DHL-10-epst) | CI50 inhibition (SU-DHL-10-epst) | CI50 inhibition (RL) | CI50 inhibition (KARPAS-422) | CI50 inhibition (WSU-NHL) | CI50 growth inhibition (GRANTA-519) | CI50 growth inhibition (NCI-H929) | CI50 growth inhibition [1]
A2 (A2=1 to <3): Synergy Score inhibition (HH) | Synergy Score growth inhibition (HBL-1) | Synergy Score growth inhibition (OCI-Ly3) | Synergy Score growth inhibition (U-2932) | Synergy Score inhibition (U-2932) | Synergy Score growth inhibition (OCI-Ly7) | Synergy Score inhibition (OCI-Ly7) | Synergy Score growth inhibition (RL) | Synergy Score inhibition (RL) | Synergy Score growth inhibition (KARPAS-422) | Synergy Score inhibition (KARPAS-422) | Synergy Score growth inhibition (GRANTA-519) | Synergy Score growth inhibition (Jeko-1) | Synergy Score inhibition (Jeko-1) | Synergy Score growth inhibition (Mino) | Synergy Score inhibition (Mino) | Synergy Score inhibition (NCI-H929) | Synergy Score growth inhibition (OMP-2) | Synergy Score inhibition (OMP-2) | Synergy Score growth inhibition (RPMI-8226)
A3 (A3=>3): Synergy Score growth inhibition (HH) | Synergy Score growth inhibition (TMD8) | Synergy Score inhibition (TMD8) | Synergy Score growth inhibition (SU-DHL-4-epst) | Synergy Score inhibition (SU-DHL-4-epst) | Synergy Score growth inhibition (DOHH-2) | Synergy Score inhibition (DOHH-2) | Synergy Score growth inhibition (Farage) | Synergy Score inhibition (Farage) | Synergy Score growth inhibition (SU-DHL-10-epst) | Synergy Score inhibition (SU-DHL-10-epst) | Synergy Score growth inhibition (WSU-NHL) | Synergy Score inhibition (WSU-NHL) | Synergy Score growth inhibition (NCI-H929)
synergistic effect: effect of the combination (isobologram) (TMD8; TMD8 DLBCL cell line, FIG. 1-3) | effect of the combination (isobologram) (Farage; Farage DLBCL cell line, FIG. 4-5)
W (W=≥1): CI50 inhibition (OCI-Ly7) | CI50 growth inhibition (KARPAS-422) | CI50 inhibition (KARPAS-299) | CI50 inhibition (OMP-2) | CI50 inhibition (RPMI-8226)
A1 (A1=0.0001 to <1): Synergy Score inhibition (HBL-1) | Synergy Score inhibition (OCI-Ly3) | Synergy Score growth inhibition (KARPAS-299) | Synergy Score inhibition (KARPAS-299) | Synergy Score inhibition (GRANTA-519) | Synergy Score inhibition (RPMI-8226)
U (U=0.7 to <1): CI50 inhibition (HBL-1) | CI50 growth inhibition (OCI-Ly3) | CI50 growth inhibition (KARPAS-299) | CI50 inhibition (Jeko-1) | CI50 inhibition (Mino) | CI50 growth inhibition (RPMI-8226)

Nc1cccc2c1CN(C1CCC(=O)NC1=O)C2=O (stereo not shown) [lenalidomide, 3-(4-Amino-1-oxo 1,3-dihydro-2H-isoindol-2-yl)piperidine-2,6-dione]
A1 (A1=0.0001 to <1): Synergy Score inhibition (HH) | Synergy Score growth inhibition (HBL-1) | Synergy Score inhibition (HBL-1) | Synergy Score growth inhibition (OCI-Ly3) | Synergy Score inhibition (OCI-Ly3) | Synergy Score growth inhibition (U-2932) | Synergy Score inhibition (U-2932) | Synergy Score growth inhibition (OCI-Ly7) | Synergy Score inhibition (OCI-Ly7) | Synergy Score inhibition (SU-DHL-4-epst) | Synergy Score inhibition (Farage) | Synergy Score growth inhibition (RL) | Synergy Score inhibition (RL) | Synergy Score growth inhibition (KARPAS-299) | Synergy Score inhibition (KARPAS-299) | Synergy Score growth inhibition (GRANTA-519) | Synergy Score inhibition (GRANTA-519) | Synergy Score inhibition (Mino) | Synergy Score inhibition (OMP-2) | Synergy Score growth inhibition (RPMI-8226) | Synergy Score inhibition (RPMI-8226)
U (U=0.7 to <1): CI50 growth inhibition (U-2932)
T (T=0.5 to <0.7): CI50 inhibition (HH) | CI50 inhibition (SU-DHL-4-epst) | CI50 growth inhibition (SU-DHL-10-epst) | CI50 inhibition (SU-DHL-10-epst) | CI50 growth inhibition (WSU-NHL) | CI50 inhibition (Jeko-1) | CI50 growth inhibition (Mino) | CI50 growth inhibition (NCI-H929)
S (S=0.01 to <0.5): CI50 growth inhibition (TMD8) | CI50 inhibition (TMD8) | CI50 growth inhibition (DOHH-2) | CI50 inhibition (DOHH-2) | CI50 growth inhibition (KARPAS-422) | CI50 inhibition (KARPAS-422) | CI50 inhibition (WSU-NHL) | CI50 growth inhibition (Jeko-1) | CI50 inhibition (NCI-H929) | CI50 growth inhibition [1]
W (W=≥1): CI50 growth inhibition (HH) | CI50 growth inhibition (HBL-1) | CI50 growth inhibition (OCI-Ly3) | CI50 growth inhibition (SU-DHL-4-epst) | CI50 growth inhibition (Farage) | CI50 inhibition (Farage) | CI50 inhibition (Mino)
A3 (A3=>3): Synergy Score growth inhibition (TMD8) | Synergy Score inhibition (TMD8) | Synergy Score growth inhibition (DOHH-2) | Synergy Score growth inhibition (WSU-NHL) | Synergy Score growth inhibition (NCI-H929) | Synergy Score inhibition (NCI-H929)
A2 (A2=1 to <3): Synergy Score growth inhibition (HH) | Synergy Score growth inhibition (SU-DHL-4-epst) | Synergy Score inhibition (DOHH-2) | Synergy Score growth inhibition (Farage) | Synergy Score growth inhibition (SU-DHL-10-epst) | Synergy Score inhibition (SU-DHL-10-epst) | Synergy Score growth inhibition (KARPAS-422) | Synergy Score inhibition (KARPAS-422) | Synergy Score inhibition (WSU-NHL) | Synergy Score growth inhibition (Jeko-1) | Synergy Score inhibition (Jeko-1) | Synergy Score growth inhibition (Mino) | Synergy Score growth inhibition (OMP-2)
